# Experimental data taken from patent US8163756B2 (priority 2004, dated 2012).
# Counter-ions that a name gives are not always drawn.
# What was measured:
# Type in all cases: biochemical
# Abl kinase [1] = target: T1, Abl kinase (Homo sapiens, UniProt P00519); assay: Abl kinase assay A1 (pyruvate kinase/lactate dehydrogenase coupled, spectrophotometric); conditions: Method A1; for IC50: read-out: Abl Data (IC50)
# T1 sequence (P00519 229-512): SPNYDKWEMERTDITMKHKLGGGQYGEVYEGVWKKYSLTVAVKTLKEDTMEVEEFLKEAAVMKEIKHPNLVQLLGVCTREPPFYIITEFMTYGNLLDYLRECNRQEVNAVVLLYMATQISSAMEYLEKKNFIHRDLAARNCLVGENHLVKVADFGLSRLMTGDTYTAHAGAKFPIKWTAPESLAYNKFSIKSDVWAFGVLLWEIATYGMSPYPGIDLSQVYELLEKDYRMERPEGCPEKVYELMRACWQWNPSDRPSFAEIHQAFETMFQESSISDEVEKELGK
# Description: (§1) IC50 values were calculated from a series of percent inhibition values determined at a range of inhibitor concentrations using software routines as implemented in the GraphPad Prism software package.
# KDR kinase [2] = target: T2, KDR kinase (Homo sapiens, UniProt P35968, DEL940-989/E990V); assay: KDR kinase assay K2 (as K1, 2.1 nM enzyme, 2 h pre-incubation, 1.0 mM ATP); conditions: Method K2; for IC50: read-out: KDR Data (IC50)
# Description: as §1
# B-Raf(V599E) kinase [3] = target: T3, B-Raf(V599E) kinase (Homo sapiens, UniProt P15056, V600E); assay: B-Raf(V599E) kinase assay B1 (construct 1, MEK1 substrate, coupled spectrophotometric)
# Description: (§2) The test compounds were incubated with the reaction mixtureat 30° C. for 2 h. […] The reaction rate was calculated using the […] time frame. […] IC50 values were calculated from a series of percent inhibition values determined at a range of inhibitor concentrations using software routines as implemented in the GraphPad Prism software package.
# Target sequence in this assay (P15056 with tags, fused parts or gaps V600E): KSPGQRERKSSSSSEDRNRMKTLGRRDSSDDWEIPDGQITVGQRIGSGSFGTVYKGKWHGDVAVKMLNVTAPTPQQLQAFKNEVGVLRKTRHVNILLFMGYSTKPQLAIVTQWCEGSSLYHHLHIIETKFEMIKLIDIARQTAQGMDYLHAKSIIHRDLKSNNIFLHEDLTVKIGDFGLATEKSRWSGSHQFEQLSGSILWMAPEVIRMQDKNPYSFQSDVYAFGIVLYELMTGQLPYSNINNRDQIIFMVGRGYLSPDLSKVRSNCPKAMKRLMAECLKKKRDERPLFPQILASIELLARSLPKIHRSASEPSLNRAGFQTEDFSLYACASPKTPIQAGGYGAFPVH
# [4] = target: T4, phosphorylated p-38-alpha kinase (Homo sapiens, UniProt Q16539); assay: P-38 alpha kinase assay P2 (as P1, not pre-incubated); conditions: method P2 (not pre-incubated)
# Description: Same as assay P1 except that (1) the reaction was not pre-incubated.
# KDR kinase [5] = target: T2, KDR kinase; assay: KDR kinase assay K1 (pyruvate kinase/lactate dehydrogenase coupled, spectrophotometric); conditions: Method K1; read-out: KDR Data (IC50)
# Description: as §1
# B-Raf(V599E) kinase [6] = target: T3, B-Raf(V599E) kinase; assay: B-Raf(V599E) kinase assay B2 (construct 2 at 2 nM, 1 h pre-incubation)
# Description: as §2
# Target sequence in this assay (P15056 433-726 V600E): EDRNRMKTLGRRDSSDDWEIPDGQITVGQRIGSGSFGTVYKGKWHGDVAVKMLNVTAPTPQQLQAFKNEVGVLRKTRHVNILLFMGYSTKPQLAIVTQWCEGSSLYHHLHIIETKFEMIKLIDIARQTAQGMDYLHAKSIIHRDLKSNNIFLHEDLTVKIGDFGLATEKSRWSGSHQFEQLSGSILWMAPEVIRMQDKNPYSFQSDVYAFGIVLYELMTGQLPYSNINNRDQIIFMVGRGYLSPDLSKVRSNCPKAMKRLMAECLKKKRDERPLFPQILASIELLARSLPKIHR
# Same as assay B1 except that (1) construct 2 was employed at a nominal concentration of 2 nM (2) the reaction was pre-incubated at 30° C. for 1 h prior to initiation with ATP (3) a reading time frame of 0.5 h to 1.5 h.
# [7] = target: T4, phosphorylated p-38-alpha kinase; assay: P-38 alpha kinase assay P1 (coupled spectrophotometric, 2 h pre-incubation)
# Abl kinase [8] = target: T1, Abl kinase; assay: Abl kinase assay A2 (as A1, 1.1 nM enzyme, 2 h pre-incubation, 0.5 mM ATP)
# Description: as §1
# [9] = method P1 (2 h pre-incubation), read-out: P-38 Data
# [10] = Method A2, read-out: Abl Data (IC50)
# T2 sequence (P35968 with tags, fused parts or gaps DEL940-989/E990V): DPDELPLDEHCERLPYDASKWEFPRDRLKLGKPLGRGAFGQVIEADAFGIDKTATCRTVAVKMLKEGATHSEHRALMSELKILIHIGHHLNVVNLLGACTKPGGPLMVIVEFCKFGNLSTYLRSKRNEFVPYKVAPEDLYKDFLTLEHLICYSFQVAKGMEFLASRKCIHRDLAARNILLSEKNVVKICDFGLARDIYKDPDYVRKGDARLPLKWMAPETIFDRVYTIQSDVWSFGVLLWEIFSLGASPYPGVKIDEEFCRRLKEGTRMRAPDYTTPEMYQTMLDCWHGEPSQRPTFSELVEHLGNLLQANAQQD
# T4 sequence (Q16539 1-360 isoform Q16539-2): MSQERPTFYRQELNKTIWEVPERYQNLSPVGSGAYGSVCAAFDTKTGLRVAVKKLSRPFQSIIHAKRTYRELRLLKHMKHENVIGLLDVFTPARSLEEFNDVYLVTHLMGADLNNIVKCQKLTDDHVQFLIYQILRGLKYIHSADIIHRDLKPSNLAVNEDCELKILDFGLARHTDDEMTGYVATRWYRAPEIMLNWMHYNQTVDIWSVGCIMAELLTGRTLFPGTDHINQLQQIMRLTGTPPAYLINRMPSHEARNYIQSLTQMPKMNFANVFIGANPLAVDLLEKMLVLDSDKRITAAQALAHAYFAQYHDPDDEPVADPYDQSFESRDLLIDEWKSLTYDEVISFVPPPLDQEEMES
smiles,measurement,setting,value
"CC(C)(C)c1cc(NC(=O)Nc2cccc(Br)c2)n(-c2cccc(C#N)c2)n1 [Example 5, 1-(3-t-butyl-1-(3-cyanophenyl)-1H-pyrazol-5-yl)-3-(3-bromophenyl)urea]",IC50,Abl kinase [1],2 µM
same,IC50,KDR kinase [2],0.85 µM
same,IC50,B-Raf(V599E) kinase [3],0.087 µM
same,IC50,[4],0.038 µM
"CC(C)(C)c1cc(NC(=O)Nc2cccc(Cl)c2)n(-c2cccc(C#N)c2)n1 [Example 8, 1-(3-t-butyl-1-(3-cyanophenyl)-1H-pyrazol-5-yl)-3-(3-chlorophenyl)urea]",inhibition at 10 µM,"Abl kinase [1]; @ 10 μM, read-out: Abl Data (percent inhibition)",81%
same,inhibition at 10 µM,"KDR kinase [2]; @ 10 μM, read-out: KDR Data (percent inhibition)",96%
same,IC50,[4],0.025 µM
"CC(C)(C)c1cc(NC(=O)Nc2cccc(Cl)c2Cl)n(-c2cccc(-c3cn[nH]c3)c2)n1 [Example 50, 1-(1-(3-(1H-pyrazol-4-yl)phenyl)-3-t-butyl-1H-pyrazol-5-yl)-3-(2,3-dichlorophenyl)urea]",IC50,Abl kinase [1],0.38 µM
same,IC50,KDR kinase [5],0.052 µM
same,IC50,B-Raf(V599E) kinase [6],0.168 µM
same,IC50,[7]; [9],0.029 µM
"CC(C)(C)c1cc(NC(=O)Nc2ccc(-c3cccc4c3CNC4=O)cc2)n(-c2cccc(-c3cn[nH]c3)c2)n1 [Example 51, 1-(1-(3-(1H-pyrazol-4-yl)phenyl)-3-t-butyl-1H-pyrazol-5-yl)-3-(4-(1-oxoisoindolin-4-yl)phenyl)urea]",IC50,Abl kinase [8]; [10],0.052 µM
same,IC50,B-Raf(V599E) kinase [6],0.029 µM
"CC(C)(C)c1cc(NC(=O)Nc2ccc(Cl)cc2)n(-c2cc(CNC(=O)NS(C)(=O)=O)c3ccccc3c2)n1 [Example 74, 1-{3-t-butyl-1-[1-(methanesulfonylureidoamidomethyl)naphthalen-3-yl]-1H-pyrazol-5-yl}-3-(4-chlorophenyl-1-yl)urea]",IC50,Abl kinase [1],2.1 µM
same,IC50,KDR kinase [2],2.5 µM
same,IC50,B-Raf(V599E) kinase [6],0.934 µM
"CC(C)(C)c1cc(NC(=O)Nc2cccc(Oc3cccnc3)c2)n(-c2cc(CC(N)=O)c3ccccc3c2)n1 [Example 86, 1-(1-(4-(2-amino-2-oxoethyl)naphthalen-2-yl)-3-t-butyl-1H-pyrazol-5-yl)-3-(3-(pyridin-3-yloxy)phenyl)urea hydrochloride]",IC50,Abl kinase [8],0.001 µM
same,IC50,B-Raf(V599E) kinase [6],0.179 µM
same,IC50,[7],0.024 µM
"CC(C)(C)c1cc(NC(=O)Nc2ccc(F)c(F)c2F)n(-c2cc(CC(=O)NCC(O)CO)c3ccccc3c2)n1 (centres unmarked) [Example 96, 1-(3-t-butyl-1-(4-(2-(2,3-dihydroxypropyl-amino)-2-oxoethyl)naphthalen-2-yl)-1H-pyrazol-5-yl)-3-(2,3,4-trifluorophenyl)urea]",IC50,Abl kinase [1],0.1 µM
same,IC50,B-Raf(V599E) kinase [6],0.378 µM
same,IC50,[7]; [9],0.048 µM
"CC(C)(C)c1cc(NC(=O)Nc2cccc(Cl)c2Cl)n(-c2ccc3[nH]ccc3c2)n1 [Example 115, 1-(3-t-butyl-1-(1H-indol-5-yl)-1H-pyrazol-5-yl)-3-(2,3-dichlorophenyl)urea]",IC50,Abl kinase [1],0.17 µM
same,IC50,KDR kinase [2],0.81 µM
same,IC50,B-Raf(V599E) kinase [6],0.979 µM
same,IC50,[7]; [9],0.49 µM
"Cn1c(=O)c(-c2cccc(NC(=O)Nc3cc(C(C)(C)C)nn3-c3ccc4[nH]ccc4c3)c2)cc2cncnc21 [Example 118, 1-(3-t-butyl-1-(1H-indol-5-yl)-1H-pyrazol-5-yl)-3-(3-(8-methyl-7-oxo-7,8-dihydropyrido[2,3-d]pyrimidin-6-yl)phenyl)urea]",IC50,Abl kinase [8]; [10],0.011 µM
same,IC50,B-Raf(V599E) kinase [6],0.023 µM
"CC(C)(C)c1cc(NC(=O)Nc2cccc(Cl)c2Cl)n(-c2ccc3cn[nH]c3c2)n1 [Example 120, 1-(3-t-butyl-1-(1H-indazol-6-yl)-1H-pyrazol-5-yl)-3-(2,3-dichlorophenyl)urea]",IC50,Abl kinase [8]; [10],5.1 µM
same,IC50,B-Raf(V599E) kinase [6],0.214 µM
"CC(C)(C)c1cc(NC(=O)Nc2cccc(Cl)c2Cl)n(-c2ccc3[nH]ncc3c2)n1 [Example 121, 1-(3-t-butyl-1-(1H-indazol-5-yl)-1H-pyrazol-5-yl)-3-(2,3-dichlorophenyl)urea]",IC50,Abl kinase [8]; [10],1 µM
same,IC50,B-Raf(V599E) kinase [6],0.105 µM
same,IC50,[7]; [9],0.04 µM
"Cn1c(=O)c(-c2cccc(NC(=O)Nc3cc(C4CCCC4)nn3-c3ccc4c(c3)CCC(=O)N4)c2)cc2cncnc21 [Example 134, 1-(3-cyclopentyl-1-(2-oxo-1,2,3,4-tetrahydroquinolin-6-yl)-1H-pyrazol-5-yl)-3-(3-(8-methyl-7-oxo-7,8-dihydropyrido[2,3-d]pyrimidin-6-yl)phenyl)urea]",IC50,Abl kinase [8]; [10],0.052 µM
same,IC50,B-Raf(V599E) kinase [6],0.041 µM
"CNC(=O)c1cc(Oc2cccc(NC(=O)Nc3cc(C(C)(C)C)nn3-c3ccc4[nH]c(=O)ccc4c3)c2)ccn1 [Example 157, 1-(3-t-butyl-1-(2-oxo-1,2-dihydroquinolin-6-yl)-1H-pyrazol-5-yl)-3-(3-(2-(methylcarbamoyl)pyridin-4-yloxy)phenyl)urea]",IC50,Abl kinase [8]; [10],0.031 µM
same,IC50,B-Raf(V599E) kinase [6],0.04 µM
"CNC(=O)c1cc(Oc2ccc(NC(=O)Nc3cc(C(C)(C)C)nn3-c3ccc4nc(NC)ccc4c3)cc2)ccn1 [Example 174, 1-(3-t-butyl-1-(2-(methylamino)quinolin-6-yl)-1H-pyrazol-5-yl)-3-(4-(2-(methylcarbamoyl)pyridin-4-yloxy)phenyl)urea]",IC50,Abl kinase [8]; [10],0.0018 µM
same,IC50,B-Raf(V599E) kinase [6],0.245 µM
"CNC(=O)c1cc(Oc2ccc(NC(=O)Nc3cc(C(C)(C)C)nn3-c3ccc4nc(N)ccc4c3)cc2)ccn1 [Example 176, 1-(1-(2-aminoquinolin-6-yl)-3-t-butyl-1H-pyrazol-5-yl)-3-(4-(2-(methylcarbamoyl)pyridin-4-yloxy)phenyl)urea]",IC50,Abl kinase [8]; [10],0.0028 µM
same,IC50,B-Raf(V599E) kinase [6],0.044 µM
"CC(C)(C)c1cc(NC(=O)Nc2cccc(Oc3cccnc3)c2)n(-c2ccc3c(c2)CC(C(=O)O)NC3)n1 (centres unmarked) [Example 189, 6-(3-t-butyl-5-(3-(3-(pyridin-3-yloxy)phenyl)ureido)-1H-pyrazol-1-yl)-1,2,3,4-tetrahydroisoquinoline-3-carboxylic acid]",IC50,Abl kinase [8]; [10],0.003 µM
same,IC50,KDR kinase [5],0.023 µM
same,IC50,B-Raf(V599E) kinase [6],0.918 µM
"CC(C)(C)c1cc(NC(=O)Nc2cccc(Cl)c2Cl)n(-c2ccc3nc[nH]c(=O)c3c2)n1 [Example 195, 1-(3-t-butyl-1-(4-oxo-3,4-dihydroquinazolin-6-yl)-1H-pyrazol-5-yl)-3-(2,3-dichlorophenyl)urea]",IC50,Abl kinase [8]; [10],0.91 µM
same,IC50,B-Raf(V599E) kinase [6],0.298 µM
same,IC50,[7]; [9],0.046 µM
"Cn1c(=O)c(-c2cccc(NC(=O)Nc3cc(C(C)(C)C)nn3-c3ccc4c(c3)CCN4S(C)(=O)=O)c2)cc2cncnc21 [Example 197, 1-(3-t-butyl-1-(1-(methylsulfonyl)indolin-5-yl)-1H-pyrazol-5-yl)-3-(3-(8-methyl-7-oxo-7,8-dihydropyrido[2,3-d]pyrimidin-6-yl)phenyl)urea]",IC50,Abl kinase [8]; [10],0.012 µM
same,IC50,B-Raf(V599E) kinase [6],0.027 µM
same,IC50,[7]; [9],0.028 µM
"COc1cccc(-n2nc(C(C)(C)C)cc2NC(=O)Nc2ccccc2F)c1 [Example 235, 1-[3-t-butyl-1-(3-methoxy-phenyl)-1H-pyrazol-5-yl]-3-(2-fluorophenyl)urea]",IC50,KDR kinase [2],3.5 µM
same,IC50,B-Raf(V599E) kinase [6],1.04 µM
same,IC50,[7]; [9],0.12 µM
"COc1cccc(-n2nc(C(C)(C)C)cc2NC(=O)Nc2cccc(F)c2F)c1 [Example 236, 1-[3-t-butyl-1-(3-methoxy-phenyl)-1H-pyrazol-5-yl]-3-(2,3-difluorophenyl)urea]",IC50,KDR kinase [2],3.5 µM
same,IC50,B-Raf(V599E) kinase [6],2.05 µM
same,IC50,[7]; [9],0.25 µM
